Results on 16 compounds are retold here after patent publication US11919901B2 (Syndax Pharmaceuticals, Inc., priority 2021, dated 2024).

Data set [1] deals with hERG (Homo sapiens (Human), UniProt Q12809). In words: Patch clamp assay (hERG tail currents, whole-cell). It counts as cell-based. The note with it: hERG transfected HEK 293 cells; for hERG % Remaining 30 μM: 30 μM compound; for hERG % Remaining 10 μM: 10 μM compound; for hERG % Remaining 100 μM: 100 μM compound.
Method: The 35 mm culture dishes upon which cells were seeded at a density allowing single cells to be recorded were placed on the dish holder of the microscope and continuously perfused (at approximately 1 mL/min) with the bath solution described in section 4.6. All solutions applied to cells including the pipette solution were maintained at room temperature (19° C. to 30° C.). After formation of a Gigaohm seal between the patch electrodes and individual hERG stably transfected HEK 293 cells (pipette resistance range: 2.0 MΩ2 to 7.0 MΩ; seal resistance range: >1GΩ) the cell membrane across the pipette tip was ruptured to assure electrical access to the cell interior (whole-cell patch-configuration). In case the quality of the seal was poor, the process of seal formation was repeated with a different cell and a new pipette. As soon as a stable seal could be established, hERG outward tail currents were measured upon depolarization of the cell membrane to +20 mV for 2s (activation of channels) from a holding potential of −80 mV and upon subsequent repolarization to −40 mV for 3 s. This voltage protocol (as shown below) was run at least 10 times at intervals of 10 s. If current density was judged to be too low for measurement, another cell was recorded.
During wash-in of the test item the voltage protocol indicated above was run continuously again at 10 s intervals until the steady-state level of block was reached.
The IC50 was determined by fitting the dose response curve with a 2-parameter logistic function (amax=100%).
For data set [2], the target named is Menin-MLL (Homo sapiens (Human), UniProt O00255). In words: Determination of binding constants (Ki) to Menin-MLL (HTRF).
[3] abbreviates: HTRF, 0.25 nM H-FL-Menin, 3.2 nM FITC-MLL-4-43, 24 hr incubation, read-out: Menin-MLL Ki HTRF Assay: Ki.
[4] abbreviates: HTRF, 0.25 nM H-FL-Menin, 3.2 nM FITC-MLL-4-43, 24 hr incubation.

Read-outs that look alike come from different tables or passages of the source. A value given as a limit tells only on which side of the number the result lay.

Sequence of Menin-MLL (O00255 whole entry): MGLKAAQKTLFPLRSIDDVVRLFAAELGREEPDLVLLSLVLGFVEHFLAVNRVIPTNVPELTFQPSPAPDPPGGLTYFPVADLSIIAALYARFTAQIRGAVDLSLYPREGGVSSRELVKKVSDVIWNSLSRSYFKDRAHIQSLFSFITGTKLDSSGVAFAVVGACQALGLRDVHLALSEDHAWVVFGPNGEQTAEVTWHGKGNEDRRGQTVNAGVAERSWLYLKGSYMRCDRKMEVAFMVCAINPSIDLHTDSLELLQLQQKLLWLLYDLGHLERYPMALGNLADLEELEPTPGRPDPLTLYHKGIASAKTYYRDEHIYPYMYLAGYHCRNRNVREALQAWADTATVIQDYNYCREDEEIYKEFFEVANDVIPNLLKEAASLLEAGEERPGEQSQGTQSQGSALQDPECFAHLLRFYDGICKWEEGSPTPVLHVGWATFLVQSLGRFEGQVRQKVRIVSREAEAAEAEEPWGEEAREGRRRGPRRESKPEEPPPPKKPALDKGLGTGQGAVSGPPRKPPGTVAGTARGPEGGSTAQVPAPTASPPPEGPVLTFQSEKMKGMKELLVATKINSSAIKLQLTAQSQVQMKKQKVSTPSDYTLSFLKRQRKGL
Sequence of hERG (Q12809 whole entry): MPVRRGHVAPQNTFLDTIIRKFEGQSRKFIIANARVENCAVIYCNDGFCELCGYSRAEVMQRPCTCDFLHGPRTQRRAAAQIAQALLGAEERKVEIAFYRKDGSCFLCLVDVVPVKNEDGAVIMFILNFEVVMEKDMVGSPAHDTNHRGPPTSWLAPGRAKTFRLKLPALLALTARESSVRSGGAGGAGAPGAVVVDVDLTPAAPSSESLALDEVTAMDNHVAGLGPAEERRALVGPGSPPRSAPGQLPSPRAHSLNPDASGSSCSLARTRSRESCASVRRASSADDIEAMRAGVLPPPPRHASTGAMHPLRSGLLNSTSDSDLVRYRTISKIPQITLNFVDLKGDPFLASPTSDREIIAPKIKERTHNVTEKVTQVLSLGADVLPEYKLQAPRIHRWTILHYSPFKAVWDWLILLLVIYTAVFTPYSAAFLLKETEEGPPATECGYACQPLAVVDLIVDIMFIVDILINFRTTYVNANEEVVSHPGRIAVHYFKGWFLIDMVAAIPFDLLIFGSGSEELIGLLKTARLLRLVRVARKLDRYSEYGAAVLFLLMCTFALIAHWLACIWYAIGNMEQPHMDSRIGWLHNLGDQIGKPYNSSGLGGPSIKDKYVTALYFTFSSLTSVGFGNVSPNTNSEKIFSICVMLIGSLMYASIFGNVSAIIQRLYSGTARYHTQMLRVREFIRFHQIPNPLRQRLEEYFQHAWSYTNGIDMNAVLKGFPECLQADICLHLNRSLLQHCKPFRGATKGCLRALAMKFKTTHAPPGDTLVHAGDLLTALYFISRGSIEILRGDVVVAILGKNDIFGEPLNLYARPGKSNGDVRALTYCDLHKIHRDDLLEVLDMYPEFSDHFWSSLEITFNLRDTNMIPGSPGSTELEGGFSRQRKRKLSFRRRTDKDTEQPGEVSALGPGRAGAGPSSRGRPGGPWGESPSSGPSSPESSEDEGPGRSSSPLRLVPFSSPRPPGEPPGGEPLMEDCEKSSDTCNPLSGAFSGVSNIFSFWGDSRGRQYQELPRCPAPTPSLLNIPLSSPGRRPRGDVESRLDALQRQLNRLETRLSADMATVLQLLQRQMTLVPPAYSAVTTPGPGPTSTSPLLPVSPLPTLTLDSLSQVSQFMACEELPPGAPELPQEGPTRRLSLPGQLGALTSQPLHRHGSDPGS

With `C[C@@H]1COC[C@@H](C)N1C(=O)c1cc(F)ccc1Oc1cncnc1N1CC2(CCN(C[C@@H]3CC[C@@H](NS(=O)(=O)N(C)C)CO3)CC2)C1` [Compound 123, {[(3R,6S)-6-{[2-(5-{2-[(3R,5R)-3,5-Dimethylmorpholine-4-carbonyl]-4-fluorophenoxy}pyrimidin-4-yl)-2,7-diazaspiro[3.5]nonan-7-yl]methyl}oxan-3-yl]sulfamoyl}dimethylamine], in data set [1], the “hERG % Remaining 30 μM” value is “+++ (“+++” means ≥66%)”. Further, the Ki in data set [2] (setting [3]) was less than 1 nM.
For `CCS(=O)(=O)N[C@@H]1CC[C@@H](CN2CCC3(CC2)CN(c2ncncc2Oc2ccc(F)cc2C(=O)N(CCC#N)C(C)C)C3)OC1` [Compound 43, N-(2-cyanoethyl)-2-((4-(7-(((2S,5R)-5-(ethylsulfonamido)tetrahydro-2H-pyran-2-yl)methyl)-2,7-diazaspiro[3.5]nonan-2-yl)pyrimidin-5-yl)oxy)-5-fluoro-N-isopropylbenzamide], in data set [1], the “hERG % Remaining 10 μM” value is “+++ (“+++” means ≥66%)”; the “hERG % Remaining 30 μM” value was “++ (“++” means ≥33% and <66%)”. Besides, the EC50 in data set [2] (setting [4]) was less than 50 nM. Further, the Ki in data set [2] (setting [3]) is less than 1 nM.
For `CCNS(=O)(=O)N[C@@H]1CC[C@@H](CN2CCC3(CC2)CN(c2ncncc2Oc2ccc(F)cc2C(=O)N(C(C)C)C2CC2)C3)OC1` [Compound 145, N-Cyclopropyl-2-((4-(7-(((2S,5R)-5-((N-ethylsulfamoyl)amino)tetrahydro-2H-pyran-2-yl)methyl)-2,7-diazaspiro[3.5]nonan-2-yl)pyrimidin-5-yl)oxy)-5-fluoro-N-isopropylbenzamide], in data set [1], the “hERG % Remaining 30 μM” value was “+++ (“+++” means ≥66%)”. In data set [2] (setting [3]), the Ki is less than 1 nM.
On to `CC(C)N(CC(F)F)C(=O)c1cc(F)ccc1Oc1cncnc1N1CC2(CCN(C[C@@H]3CC[C@@H](NS(=O)(=O)NC4CC4)CO3)CC2)C1` [Compound 149, 2-((4-(7-(((2S,5R)-5-((N-Cyclopropylsulfamoyl)amino)tetrahydro-2H-pyran-2-yl)methyl)-2,7-diazaspiro[3.5]nonan-2-yl)pyrimidin-5-yl)oxy)-N-(2,2-difluoroethyl)-5-fluoro-N-isopropylbenzamide], for which, in data set [1], the “hERG % Remaining 30 μM” value is “+++ (“+++” means ≥66%)”. Besides, in data set [2] (setting [3]), the Ki is less than 1 nM.
For `CC(C)N(CC(F)F)C(=O)c1cc(F)ccc1Oc1nncnc1N1CC2(CCN(C[C@@H]3CC[C@@H](NS(=O)(=O)N4CCC4)CO3)CC2)C1` [Compound 189, 2-((5-(7-(((2S,5R)-5-(Azetidine-1-sulfonamido)tetrahydro-2H-pyran-2-yl)methyl)-2,7-diazaspiro[3.5]nonan-2-yl)-1,2,4-triazin-6-yl)oxy)-N-(2,2-difluoroethyl)-5-fluoro-N-isopropylbenzamide], the “hERG % Remaining 30 μM” value in data set [1] is reported as “+++ (“+++” means ≥66%)”. Moreover, the Ki in data set [2] (setting [3]) is less than 1 nM.
In the case of `CCS(=O)(=NC)N[C@@H]1CC[C@@H](CN2CCC3(CC2)CN(c2ncncc2Oc2ccc(F)cc2C(=O)N(C(C)C)C(C)C)C3)OC1` (stereo partly drawn) [Compound 231, 5-Fluoro-N,N-diisopropyl-2-((4-(7-(((2S,5R)-5-(N′-methylethylsulfonoamidimidamido)tetrahydro-2H-pyran-2-yl)methyl)-2,7-diazaspiro[3.5]nonan-2-yl)pyrimidin-5-yl)oxy)benzamide], the “hERG % Remaining 30 μM” value in data set [1] is “+++ (“+++” means ≥66%)”. In data set [2], this compound yielded a Ki of less than 1 nM.
With `CNS(=O)(=O)N[C@@H]1CC[C@@H](CN2CCC3(CC2)CN(c2ncncc2Oc2ccc(F)cc2C(=O)N(CC(F)F)C(C)C)C3)OC1` [Compound 102, N-(2,2-Difluoroethyl)-5-fluoro-N-isopropyl-2-((4-(7-(((2S,5R)-5-((N-methylsulfamoyl)amino)tetrahydro-2H-pyran-2-yl)methyl)-2,7-diazaspiro[3.5]nonan-2-yl)pyrimidin-5-yl)oxy)benzamide], in data set [1], the “hERG % Remaining 30 μM” value is reported as “+++ (“+++” means ≥66%)” and the IC50 is no less than 50000 nM. Moreover, the Ki in data set [2] (setting [3]) is less than 1 nM.
With `CC(C)N(C(=O)c1cc(F)ccc1Oc1cncnc1N1CC2(CCN(C[C@@H]3CC[C@@H](NS(=O)(=O)N4CCC4)CO3)CC2)C1)[C@H]1CCOC1` [Compound 134, 2-((4-(7-(((2S,5R)-5-(Azetidine-1-sulfonamido)tetrahydro-2H-pyran-2-yl)methyl)-2,7-diazaspiro[3.5]nonan-2-yl)pyrimidin-5-yl)oxy)-5-fluoro-N-isopropyl-N-((S)-tetrahydrofuran-3-yl)benzamide], in data set [1], the “hERG % Remaining 30 μM” value is given as “+++ (“+++” means ≥66%)”. In data set [2] (setting [3]), the Ki was less than 1 nM.
In the case of `CC(C)N(C(=O)c1cc(F)ccc1Oc1cncnc1N1CC2(CCN(C[C@@H]3CC[C@@H](NS(=O)(=O)C4CC4)CO3)CC2)C1)[C@H]1CCOC1` [Compound 176, 2-((4-(7-(((2S,5R)-5-(Cyclopropanesulfonamido)tetrahydro-2H-pyran-2-yl)methyl)-2,7-diazaspiro[3.5]nonan-2-yl)pyrimidin-5-yl)oxy)-5-fluoro-N-isopropyl-N-((S)-tetrahydrofuran-3-yl)benzamide], in data set [1], the “hERG % Remaining 10 μM” value is on record as “+++ (“+++” means ≥66%)”, the “hERG % Remaining 30 μM” value was “+++ (“+++” means ≥66%)” and the “hERG % Remaining 100 μM” value was “+++ (“+++” means ≥66%)”. In data set [1] (human, HEK 293 cells stably transfected with hERG), the IC50 was no less than 50000 nM. Also, the Ki in data set [2] (setting [3]) was less than 1 nM.
As to `CC(C)N(CCC#N)C(=O)c1cc(F)ccc1Oc1cncnc1N1CC2(CCN(C[C@@H]3CC[C@@H](NS(=O)(=O)N(C)C)CO3)CC2)C1` [Compound 183, N-(2-Cyanoethyl)-2-((4-(7-(((2S,5R)-5-((N,N-dimethylsulfamoyl)amino)tetrahydro-2H-pyran-2-yl)methyl)-2,7-diazaspiro[3.5]nonan-2-yl)pyrimidin-5-yl)oxy)-5-fluoro-N-isopropylbenzamide], the “hERG % Remaining 30 μM” value in data set [1] is “+++ (“+++” means ≥66%)”. For the same compound, in data set [2] (setting [3]), the Ki is less than 1 nM.
Regarding `Cc1ncc(S(=O)(=O)N[C@@H]2CC[C@@H](CN3CCC4(CC3)CN(c3ncncc3Oc3ccc(F)cc3C(=O)N(C(C)C)C(C)C)C4)OC2)s1` [Compound 84, 5-Fluoro-N,N-diisopropyl-2-((4-(7-(((2S,5R)-5-((2-methylthiazole)-5-sulfonamido)tetrahydro-2H-pyran-2-yl)methyl)-2,7-diazaspiro[3.5]nonan-2-yl)pyrimidin-5-yl)oxy)benzamide], in data set [1], the “hERG % Remaining 10 μM” value was “++ (“++” means ≥33% and <66%)”; the “hERG % Remaining 30 μM” value was “+ (“+” means <33%)”. Besides, the Ki in data set [2] (setting [3]) is less than 1 nM.
In the case of `CC(C)N(C(=O)c1cc(F)ccc1Oc1cncnc1N1CC2(CCN(C[C@@H]3CC[C@@H](NS(=O)(=O)C4COC4)CO3)CC2)C1)C(C)C` [Compound 16, 5-fluoro-N,N-diisopropyl-2-((4-(7-(((2S,5R)-5-(oxetane-3-sulfonamido)tetrahydro-2H-pyran-2-yl)methyl)-2,7-diazaspiro[3.5]nonan-2-yl)pyrimidin-5-yl)oxy)benzamide], in data set [1], the “hERG % Remaining 10 μM” value is “+++ (“+++” means ≥66%)” and the “hERG % Remaining 30 μM” value is “+++ (“+++” means ≥66%)”. This compound also came in with an EC50 in data set [2] (setting [4]) of less than 50 nM. For the same compound, in data set [2] (setting [3]), the Ki is less than 1 nM.
Turning to `CC(C)N(C)C(=O)c1cc(F)ccc1Oc1cncnc1N1CC2(CCN(C[C@@H]3CC[C@@H](NS(=O)(=O)N4CCC4)CO3)CC2)C1` [Compound 138, 2-((4-(7-(((2S,5R)-5-(Azetidine-1-sulfonamido)tetrahydro-2H-pyran-2-yl)methyl)-2,7-diazaspiro[3.5]nonan-2-yl)pyrimidin-5-yl)oxy)-5-fluoro-N-isopropyl-N-methylbenzamide], the “hERG % Remaining 30 μM” value in data set [1] was “+++ (“+++” means ≥66%)”. The Ki in data set [2] (setting [3]) was less than 1 nM.
The corresponding values for `CC(C)N(CC(F)F)C(=O)c1cc(F)ccc1Oc1cncnc1N1CC2(CCN(C[C@@H]3CC[C@@H](NS(=O)(=O)c4ccn(C)n4)CO3)CC2)C1` [Compound 103, N-(2,2-Difluoroethyl)-5-fluoro-N-isopropyl-2-((4-(7-(((2S,5R)-5-((1-methyl-1H-pyrazole)-3-sulfonamido)tetrahydro-2H-pyran-2-yl)methyl)-2,7-diazaspiro[3.5]nonan-2-yl)pyrimidin-5-yl)oxy)benzamide] are “+++ (“+++” means ≥66%)” and less than 1 nM.
Consider `CC(C)N(C(=O)c1cc(F)ccc1Oc1cncnc1N1CC2(CCN(C[C@@H]3CC[C@@H](NS(=O)(=O)C4CC4)CO3)CC2)C1)C(C)C` [Compound 15, 2-((4-(7-(((2S,5R)-5-(cyclopropanesulfonamido)tetrahydro-2H-pyran-2-yl)methyl)-2,7-diazaspiro[3.5]nonan-2-yl)pyrimidin-5-yl)oxy)-5-fluoro-N,N-diisopropylbenzamide], for which the “hERG % Remaining 3 μM” value in data set [1] (3 μM compound) was “+++ (“+++” means ≥66%)”. Also, in data set [1], the “hERG % Remaining 10 μM” value is “+++ (“+++” means ≥66%)”; the “hERG % Remaining 30 μM” value was “++ (“++” means ≥33% and <66%)”; the “hERG % Remaining 100 μM” value is reported as “+ (“+” means <33%)”; the IC50 was in the range of 25000 to 50000 nM. This compound also registered an EC50 in data set [2] (setting [4]) of less than 50 nM. In addition, in data set [2] (setting [3]), the Ki is less than 1 nM.
Regarding `CC(C)N(C(=O)c1cc(F)ccc1Oc1cncnc1N1CC2(CCN(C[C@@H]3CC[C@@H](NS(=O)(=O)N(C)C)CO3)CC2)C1)C1CC(F)(F)C1` [Compound 113, N-(3,3-Difluorocyclobutyl)-2-((4-(7-(((2S,5R)-5-((N,N-dimethylsulfamoyl)amino)tetrahydro-2H-pyran-2-yl)methyl)-2,7-diazaspiro[3.5]nonan-2-yl)pyrimidin-5-yl)oxy)-5-fluoro-N-isopropylbenzamide], in data set [1], the “hERG % Remaining 10 μM” value was “+++ (“+++” means ≥66%)”; the “hERG % Remaining 30 μM” value is “++ (“++” means ≥33% and <66%)”. In data set [2] (setting [4]), this compound gave an EC50 of less than 50 nM. Further, the Ki in data set [2] (setting [3]) is less than 1 nM.
